# In ChEMBL document CHEMBL1126278, “New neplanocin analogues. 1. Synthesis of 6'-modified neplanocin A derivatives as broad-spectrum antiviral agents” (J Med Chem, 1992):
# Legend:
# HEL [1] = test: Inhibitory effect on replication of DNA virus CMV (AD-169) on HEL cell line.; type: functional, cell-based; details: Homo sapiens
# HEL [2] = test: Inhibitory effect on replication of DNA virus CMV (Davis) on HEL cell line.; type: functional, cell-based; details: Homo sapiens
# HEL [3] = test: Inhibitory effect on replication of DNA virus Cell growth on HEL cell line.; type: functional, cell-based; details: Homo sapiens
# HEL [4] = test: Inhibitory effect on replication of DNA virus TK-VZV (07-1) on HEL cell line.; type: functional, cell-based; details: Homo sapiens
# HEL [5] = test: Inhibitory effect on replication of DNA virus TK-VZV (YSR) on HEL cell line.; type: functional, cell-based; details: Homo sapiens
# HEL [6] = test: Inhibitory effect on replication of DNA virus VZV (Oka) on HEL cell line.; type: functional, cell-based; details: Homo sapiens
# HEL [7] = test: Inhibitory effect on replication of DNA virus VZV (YS) on HEL cell line.; type: functional, cell-based; details: Homo sapiens
# HeLa [8] = test: Inhibitory effect on replication of RNA virus coxsB-4 in HeLa cell line.; type: functional, cell-based; details: Homo sapiens
# HeLa [9] = test: Inhibitory effect on replication of RNA virus RSV in HeLa cell line; type: functional, cell-based; details: Homo sapiens
# MDCK [10] = test: Inhibitory effect on replication of RNA virus cell morphology in MDCK cell line.; type: functional, cell-based; details: Canis lupus familiaris
# MT4 [11] = test: Inhibitory effect on replication of RNA virus HIV-1 in MT-4 cell line.; type: functional, cell-based; details: Homo sapiens
# MT4 [12] = test: Inhibitory effect on replication of RNA virus cell growth in MT-4 cell line.; type: functional, cell-based; details: Homo sapiens
# PRK [13] = test: Inhibitory effect on replication of DNA virus Cell morphology on PRK cell line; type: functional, cell-based; details: Oryctolagus cuniculus
# [14] = Inhibitory effect on replication of DNA virus HSV-1 (KOS) in PRK cell line.; type: functional, cell-based; details: Oryctolagus cuniculus
# [15] = Inhibitory effect on replication of DNA virus HSV-2 (G) in PRK cell line.; type: functional, cell-based; details: Oryctolagus cuniculus
# PRK [16] = test: Inhibitory effect on replication of RNA virus VSV in PRK cell line.; type: functional, cell-based; details: Oryctolagus cuniculus
# PRK [17] = test: Inhibitory effect on replication of RNA virus cell morphology in PRK cell line.; type: functional, cell-based; details: Oryctolagus cuniculus
# Vero [18] = test: Inhibitory effect on replication of RNA virus coxsB-4 in Vero cell line; type: functional, cell-based; details: Chlorocebus sabaeus
# Vero [19] = test: Inhibitory effect on replication of RNA virus measles on Vero cell line.; type: functional, cell-based; details: Chlorocebus sabaeus
# Vero [20] = test: Inhibitory effect on replication of RNA virus reo-1 in Vero cell line.; type: functional, cell-based; details: Chlorocebus sabaeus
# Vero [21] = test: Inhibitory effect on replication of RNA virus JV in Vero cell line.; type: functional, cell-based; details: Chlorocebus sabaeus
# Vero [22] = test: Inhibitory effect on replication of RNA virus SFV in Vero cell line; type: functional, cell-based; details: Chlorocebus sabaeus
# Vero [23] = test: Inhibitory effect on replication of RNA virus SV in Vero cell line.; type: functional, cell-based; details: Chlorocebus sabaeus
# Vero [24] = test: Inhibitory effect on replication of RNA virus TV in Vero cell line.; type: functional, cell-based; details: Chlorocebus sabaeus
# Vero [25] = test: Inhibitory effect on replication of RNA virus cell morphology in Vero cell line.; type: functional, cell-based; details: Chlorocebus sabaeus
# Vero [26] = test: Inhibitory effect on replication of RNA virus protein synthesis in Vero cell line.; type: functional, cell-based; details: Chlorocebus sabaeus
# Vero [27] = test: Inhibitory effect on replication of RNA virus PV-3 in Vero cell line.; type: functional, cell-based; details: Chlorocebus sabaeus
# Vero [28] = test: Inhibitory effect on replication of virus protein synthesis in Vero cell line.; type: functional, cell-based; details: Chlorocebus sabaeus
# HeLa [29] = test: cells; details: Homo sapiens
# MDCK [30] = test: cells; details: Canis lupus familiaris
# MDCK [31] = test: cells; details: Canis lupus familiaris; remark: listed apart in the source
# ESM [32] = test: Inhibitory effect on replication of DNA virus Cell morphology on ESM cell line; type: functional, cell-based
# ESM [33] = test: Inhibitory effect on replication of DNA virus HSV-1 (KOS) in ESM cell line; type: functional, cell-based
# ESM [34] = test: Inhibitory effect on replication of DNA virus HSV-2 (G) in ESM cell line; type: functional, cell-based
# ESM [35] = test: Inhibitory effect on replication of DNA virus TK-HSV-1 (B2006) on ESM cell line.; type: functional, cell-based
# ESM [36] = test: Inhibitory effect on replication of DNA virus TK-HSV-1 (VMW 1837) on ESM cell line.; type: functional, cell-based
# ESM [37] = test: Inhibitory effect on replication of DNA virus VV on ESM cell line.; type: functional, cell-based
# ESM [38] = test: Inhibitory effect on replication of RNA virus VSV in ESM cell line.; type: functional, cell-based
# ESM [39] = test: Inhibitory effect on replication of RNA virus cell morphology in ESM cell line.; type: functional, cell-based
# HeLa [40] = test: Inhibitory effect on replication of DNA virus RNA virus cell morphology in HeLa cell line.; type: functional, cell-based; details: Homo sapiens
# HeLa [41] = test: Inhibitory effect on replication of RNA virus VSV in HeLa cell line.; type: functional, cell-based; details: Homo sapiens
# PRK [42] = test: Inhibitory effect on replication of DNA virus VV on PRK cell line.; type: functional, cell-based; details: Oryctolagus cuniculus
# Vero [43] = test: Inhibitory effect on replication of RNA virus RNA synthesis in Vero cell line.; type: functional, cell-based; details: Chlorocebus sabaeus
smiles,measurement,setting,value
Nc1ncnc2c1ncn2[C@@H]1C=C(CCl)[C@@H](O)[C@H]1O,IC50,HEL [1],2 µg/mL
same,IC50,HEL [2],0.7 µg/mL
same,IC50,HEL [3],9 µg/mL
same,IC50,HEL [4],1 µg/mL
same,IC50,HEL [5],2 µg/mL
same,IC50,HEL [6],2.5 µg/mL
same,IC50,HEL [7],2 µg/mL
same,IC50,HeLa [8],> 40 µg/mL
same,IC50,HeLa [9],0.8 µg/mL
same,IC50,MDCK [10],10 µg/mL
same,IC50,MT4 [11],> 0.06 µg/mL
same,IC50,MT4 [12],0.2 µg/mL
same,IC50,PRK [13],40 µg/mL
same,IC50,[14],> 20 µg/mL
same,IC50,[15],> 20 µg/mL
same,IC50,PRK [16],0.7 µg/mL
same,IC50,PRK [17],40 µg/mL
same,IC50,Vero [18],> 40 µg/mL
same,IC50,Vero [19],0.8 µg/mL
same,IC50,Vero [20],0.7 µg/mL
same,IC50,Vero [21],2 µg/mL
same,IC50,Vero [22],> 40 µg/mL
same,IC50,Vero [23],> 40 µg/mL
same,IC50,Vero [24],2 µg/mL
same,IC50,Vero [25],40 µg/mL
same,IC50,Vero [26],0.8 µg/mL
same,IC50,Vero [27],7 µg/mL
same,IC50,Vero [28],5 µg/mL
same,IC50,HeLa [29],> 40 µg/mL
same,IC50,MDCK [30],> 10 µg/mL
same,IC50,MDCK [31],> 10 µg/mL
Nc1ncnc2c1ncn2[C@@H]1C=C(CO)[C@@H](O)[C@H]1O [NEOPLANOCIN A],IC50,ESM [32],40 µg/mL
same,IC50,ESM [33],20 µg/mL
same,IC50,ESM [34],10 µg/mL
same,IC50,ESM [35],4 µg/mL
same,IC50,ESM [36],7 µg/mL
same,IC50,ESM [37],0.2 µg/mL
same,IC50,ESM [38],0.2 µg/mL
same,IC50,ESM [39],40 µg/mL
same,IC50,HEL [1],0.3 µg/mL
same,IC50,HEL [2],0.2 µg/mL
same,IC50,HEL [3],16 µg/mL
same,IC50,HEL [4],5 µg/mL
same,IC50,HEL [5],2 µg/mL
same,IC50,HEL [6],8 µg/mL
same,IC50,HEL [7],5 µg/mL
same,IC50,HeLa [8],> 40 µg/mL
same,IC50,HeLa [40],20 µg/mL
same,IC50,HeLa [9],0.2 µg/mL
same,IC50,HeLa [41],0.2 µg/mL
same,IC50,MDCK [10],20 µg/mL
same,IC50,MT4 [11],> 0.006 µg/mL
same,IC50,MT4 [12],0.02 µg/mL
same,IC50,PRK [13],40 µg/mL
same,IC50,PRK [42],0.2 µg/mL
same,IC50,[14],> 40 µg/mL
same,IC50,[15],> 40 µg/mL
same,IC50,PRK [16],0.2 µg/mL
same,IC50,PRK [17],40 µg/mL
same,IC50,Vero [18],> 40 µg/mL
same,IC50,Vero [19],0.2 µg/mL
same,IC50,Vero [20],0.4 µg/mL
same,IC50,Vero [21],0.4 µg/mL
same,IC50,Vero [22],> 40 µg/mL
same,IC50,Vero [23],> 40 µg/mL
same,IC50,Vero [24],0.4 µg/mL
same,IC50,Vero [43],0.21 µg/mL
same,IC50,Vero [25],10 µg/mL
same,IC50,Vero [26],4.3 µg/mL
same,IC50,Vero [27],0.4 µg/mL
same,IC50,HeLa [29],> 40 µg/mL
same,IC50,MDCK [30],> 20 µg/mL
same,IC50,MDCK [31],> 20 µg/mL
